Test results: US20250049036A1 (priority 2021, published 2025)

How the values were obtained:
[1] = system: Colletotrichum capsici; test: Colletotrichum capsici (anthracnose) mycelial radial growth on potato dextrose agar; assay type: cell-based; conditions: Colletotrichum truncatum, 168 h, 25° C., seven days, read-out: control compared to the untreated check
Experimental: The compounds were dissolved in 0.3% dimethyl sulfoxide and then added to potato dextrose agar medium just prior to dispensing it into petri dishes. 5 mL medium, with the compound in the desired concentration, was dispensed into 60 mm sterile petri-plates. After solidification, each plate was seeded with a 5 mm size mycelial disc taken from the periphery of an actively growing virulent culture plate. The plates were incubated in growth chambers at 25° C. temperature and 60% relative humidity for seven days and the radial growth was measured and compared to the one of the untreated control.

[2] = system: Botrytis cinerea; test: Botrytis cinerea liq. (BOTRCI) spore growth inhibition in liquid medium, 96-well microtiter plate, OD 405 nm; assay type: cell-based; conditions: spore suspension in YBA liquid medium, 22° C., 5-6 days, OD at 405 nm, read-out: control compared to the untreated check
Experimental: (§1) Yeast bacterial peptone and sodium acetate (YBA) liquid medium containing a BOTRCI (10^4 spores/ml) spore suspension was prepared. For the inhibition assay, each test compound was solved in dimethyl sulfoxide. 100 μl of the test compound in media-solution was added to a 96-well microtiter plate, consequently, the same volume (100 μl) of spore suspension was added to the well making the final test concentrations and the plate was incubated at 22° C. for 5-6 days. The growth inhibition was evaluated by measuring the OD at 405 nm. Percent inhibition was calculated with the below formula:
Where T=treatment, C=control, and B=blank

[3] = system: Pyricularia oryzae; test: microbe, parasite or virus in culture; assay type: cell-based; conditions: 168 h, read-out: control compared to the untreated check
[4] = system: Parastagonospora nodorum; test: Parastagonospora nodorum (PARANO) spore growth inhibition in liquid medium, 96-well microtiter plate, OD 600; assay type: cell-based; conditions: spore suspension in PDB liquid medium, 18° C., 5-6 days, OD at 600, read-out: control compared to the untreated check
Experimental: as §1, with “Potato dextrose (PDB)” for “Yeast bacterial peptone and sodium acetate (YBA)”, “medium (Difco)” for “medium”, “PARANO (10^5” for “BOTRCI (10^4”, “18°” for “22°”, “600.” for “405 nm.”, “formula: […]” for “formula:”

[5] = system: Phytophthora infestans; test: microbe, parasite or virus in culture; assay type: cell-based; conditions: 168 h, read-out: control compared to the untreated check
[6] = system: Phakopsora pachyrhizi; test: Phakopsora pachyrhizi test on soybean, preventive, greenhouse; assay type: in vivo; conditions: preventive spray on soybean, inoculated one day after treatment, read-out: control (efficacy, disease severity) compared to the untreated check
Experimental: The respective compound was dissolved in 2% dimethyl sulfoxide/acetone and then mixed with water containing emulsifier to the calibrated spray volume of 30 mL. Each spray solution was poured into a spray bottle for further application.
To test the preventive activity of a compound, healthy young soybean plants, raised in the greenhouse, were sprayed with the active compound preparation at the stated application rate inside the spray cabinets using hollow cone nozzles. One day after treatment, the plants were inoculated with a conidial suspension containing 2×10^5 Phakopsora pachyrhizi inoculum. The inoculated plants were then kept in a greenhouse chamber at 22-24° C. temperature and 80-90% relative humidity for disease expression.

| SMILES | inhibition of growth at 300 ppm [2] | inhibition of growth at 300 ppm [4] | inhibition of growth at 300 ppm [5] | other results |
| --- | --- | --- | --- | --- |
| CC(c1ccccc1)C(C)(C)NC(=O)c1cnc2c(ccn2C)c1 (centres unmarked) [Compound 8, 1-methyl-N-(2-methyl-3-phenylbutan-2-yl)-1H-pyrrolo[2,3-b] pyridine-5-carboxamide] | ≥ 70% | ≥ 70% |  | inhibition of growth at 300 ppm [1]: ≥ 70%; inhibition of growth at 300 ppm [3]: ≥ 70% |
| Cn1ccc2cc(C(=O)NC(C)(C)Cc3ccc(F)cc3F)cnc21 [Compound 20] | ≥ 70% |  |  | inhibition of growth at 300 ppm [1]: ≥ 70%; inhibition of growth at 300 ppm [3]: ≥ 70% |
| Cc1cccc(CC(C)(C)NC(=O)c2cnc3c(ccn3C)c2)c1 [Compound 27, 1-methyl-N-(2-methyl-1-(m-tolyl)propan-2-yl)-1H-pyrrolo[2,3-b] pyridine-5-carboxamide] |  | ≥ 70% | ≥ 70% |  |
| COc1nc2c(ccn2C)cc1C(=O)NC(C)(C)Cc1ccccc1 [Compound 91, 6-methoxy-1-methyl-N-(2-methyl-1-phenylpropan-2-yl)-1H-pyrrolo[2,3-b] pyridine-5-carboxamide] |  |  | ≥ 70% |  |
| CC(C)(CO)NC(=O)c1cnc2ccsc2c1 [Compound 111, N-(1-hydroxy-2-methylpropan-2-yl)thieno[3,2-b] pyridine-6-carboxamide] |  |  | ≥ 70% |  |
| Cc1cccc(CC(NC(=O)c2cnc3ccsc3c2)C(C)(C)O)c1 (centres unmarked) [Compound 114, N-(3-hydroxy-3-methyl-1-(m-tolyl)butan-2-yl)thieno[3,2-b] pyridine-6-carboxamide] |  |  | ≥ 70% |  |
| COc1cc(C(O)C(C)(C)NC(=O)c2cnc3ccsc3c2)ccc1F (centres unmarked) [Compound 119, N-(1-(4-fluoro-3-methoxyphenyl)-1-hydroxy-2-methylpropan-2-yl)thieno[3,2-b] pyridine-6-carboxamide] |  | ≥ 70% | ≥ 70% | pest or weed control at 500 ppm [6]: ≥ 70%; inhibition of growth at 300 ppm [3]: ≥ 70% |
| COc1cc(C(O)C(C)(C)NC(=O)c2cnc3c(ccn3C)c2)ccc1F (centres unmarked) [Compound 123, N-(1-(4-fluoro-3-methoxyphenyl)-1-hydroxy-2-methylpropan-2-yl)-1-methyl-1H-pyrrolo[2,3-b]pyridine-5-carboxamide] |  |  | ≥ 70% |  |
| CC(C)(COC(=O)c1cccc(F)c1)NC(=O)c1cnc2cc[nH]c2c1 [Compound 156, 2-methyl-2-(1H-pyrrolo[3,2-b]pyridine-6-carboxamido)propyl 3-fluorobenzoate] |  |  | ≥ 70% |  |
| C=C(C)CC(C)(COc1ccccc1F)NC(=O)c1cnc2cc[nH]c2c1 (centres unmarked) [Compound 175, N-(1-(2-fluorophenoxy)-2,4-dimethylpent-4-en-2-yl)-1H-pyrrolo[3,2-b] pyridine-6-carboxamide] |  | ≥ 70% | ≥ 70% | inhibition of growth at 300 ppm [1]: ≥ 70% |
| Cn1cc(Br)c2cc(C(=O)NC(C)(C)COCc3ccccc3C#N)cnc21 [Compound 196] |  |  | ≥ 70% |  |
| Cc1ccc(COCC(C)(C)NC(=O)c2cnc3c(c2)c(Br)cn3C)c(C)c1 [Compound 201, 3-bromo-N-(1-((2,4-dimethylbenzyl)oxy)-2-methylpropan-2-yl)-1-methyl-1H-pyrrolo[2,3-b]pyridine-5-carboxamide] |  |  | ≥ 70% |  |
| CC(C)(COc1ccc(F)cn1)NC(=O)c1cnc2ccsc2c1 [Compound 207, N-(1-((5-fluoropyridin-2-yl)oxy)-2-methylpropan-2-yl)thieno[3,2-b] pyridine-6-carboxamide] |  |  | ≥ 70% |  |
| CC(C)(COc1ccccn1)NC(=O)c1cnc2ccsc2c1 [Compound 212, N-(2-methyl-1-(pyridin-2-yloxy)propan-2-yl)thieno[3,2-b] pyridine-6-carboxamide] |  |  | ≥ 70% |  |
| Cn1cc(Br)c2cc(C(=O)NC(C)(C)COc3ccc(F)cn3)cnc21 [Compound 216, 3-bromo-N-(1-((5-fluoropyridin-2-yl)oxy)-2-methylpropan-2-yl)-1-methyl-1H-pyrrolo[2,3-b]pyridine-5-carboxamide] |  |  | ≥ 70% |  |
| Cn1cc(Cl)c2cc(C(=O)NC(C)(C)COc3ccccn3)cnc21 [Compound 219, 3-chloro-1-methyl-N-(2-methyl-1-(pyridin-2-yloxy)propan-2-yl)-1H-pyrrolo[2,3-b] pyridine-5-carboxamide] | ≥ 70% |  |  | inhibition of growth at 300 ppm [3]: ≥ 70% |
| Cn1cc(Cl)c2cc(C(=O)NC(C)(C)COc3ccc(F)cn3)cnc21 [Compound 221, 3-chloro-N-(1-((5-fluoropyridin-2-yl)oxy)-2-methylpropan-2-yl)-1-methyl-1H-pyrrolo[2,3-b]pyridine-5-carboxamide] | ≥ 70% |  |  |  |
| Cn1ccc2cc(C(=O)NC(C)(C)COc3ccnc(Cl)c3)cnc21 [Compound 229, N-(1-((2-chloropyridin-4-yl)oxy)-2-methylpropan-2-yl)-1-methyl-1H-pyrrolo[2,3-b]pyridine-5-carboxamide] |  |  | ≥ 70% |  |
| Cn1cc(Br)c2cc(C(=O)NC(C)(C)COCc3cc(F)ccc3Cl)cnc21 [Compound 232, 3-bromo-N-(1-((2-chloro-5-fluorobenzyl)oxy)-2-methylpropan-2-yl)-1-methyl-1H-pyrrolo[2,3-b]pyridine-5-carboxamide] | ≥ 70% | ≥ 70% |  |  |
| CC(C)(COc1ccc(F)cn1)NC(=O)c1cnc2c(c1)CCC2 [Compound 233, N-(1-((5-fluoropyridin-2-yl)oxy)-2-methylpropan-2-yl)-6,7-dihydro-5H-cyclopenta[b]pyridine-3-carboxamide] |  |  | ≥ 70% |  |
| CON(C(=O)c1cnc2c(ccn2C)c1)C(C)Cc1ccccc1F (centres unmarked) [Compound 239, N-(1-(2-fluorophenyl)propan-2-yl)-N-methoxy-1-methyl-1H-pyrrolo[2,3-b]pyridine-5-carboxamide] | ≥ 70% | ≥ 70% |  | inhibition of growth at 300 ppm [3]: ≥ 70% |
| CC(C)(COc1ccccn1)NC(=O)c1cc2c(nc1Cl)CCC2 [Compound 242, 2-chloro-N-(2-methyl-1-(pyridin-2-yloxy)propan-2-yl)-6,7-dihydro-5H-cyclopenta[b]pyridine-3-carboxamide] | ≥ 70% |  |  |  |
| CC(C)(COc1ccnc(Cl)c1)NC(=O)c1cc2c(nc1Cl)CCC2 [Compound 244, 2-chloro-N-(1-((2-chloropyridin-4-yl)oxy)-2-methylpropan-2-yl)-6,7-dihydro-5H-cyclopenta[b]pyridine-3-carboxamide] | ≥ 70% | ≥ 70% |  |  |
| O=C(NC1(Cc2ccccc2)CC1)c1cc2c(nc1Cl)CCC2 [Compound 246, N-(1-benzylcyclopropyl)-2-chloro-6,7-dihydro-5H-cyclopenta[b]pyridine-3-carboxamide] |  |  | ≥ 70% |  |
| COc1nc2c(cc1C(=O)NCC1(c3ccccc3)CC1)CCC2 [Compound 247, 2-methoxy-N-((1-phenylcyclopropyl)methyl)-6,7-dihydro-5H-cyclopenta[b]pyridine-3-carboxamide] | ≥ 70% | ≥ 70% |  | inhibition of growth at 300 ppm [1]: ≥ 70% |
| O=C(NCC1(c2ccccc2)CC1)c1cc2c(nc1Cl)CCC2 [Compound 248, 2-chloro-N-((1-phenylcyclopropyl)methyl)-6,7-dihydro-5H-cyclopenta[b]pyridine-3-carboxamide] |  |  | ≥ 70% |  |
| COc1nc2c(cc1C(=O)NC(C)CCc1ccccc1)CCC2 (centres unmarked) [Compound 249, 2-methoxy-N-(4-phenylbutan-2-yl)-6,7-dihydro-5H-cyclopenta[b]pyridine-3-carboxamide] |  | ≥ 70% | ≥ 70% |  |
| CC(CCc1ccccc1)NC(=O)c1cc2c(nc1Cl)CCC2 (centres unmarked) [Compound 250, 2-chloro-N-(4-phenylbutan-2-yl)-6,7-dihydro-5H-cyclopenta[b]pyridine-3-carboxamide] |  |  | ≥ 70% |  |
